# Assay results from patent publication US12576135B2, “Compositions and methods for anti-TnMUC1 gold CAR t-cells” (Chimera Bioengineering, Inc., priority 2021, dated 2026).
# Test system: primary T-cells
# Experiment: Rapamycin inhibition of Gold controlled nano-luciferase in anti-DLL3 CAR primary T-cells mixed with SHP-77 cells
# Format: cell-based
# Conditions: Concurrent Rx and Delay Rx; 24, 48, 72 hours
# Excerpt: A bicistronic vector with an anti-DLL3-CAR and nano-luceiferase under the control of an IFNg Gold element is made using the methods and materials described above. This bicistronic vector is transduced into primary T-cells, and transduced T-cells are obtained. When the transduced T-cells are mixed with SHP-77 cells that display the DLL3 antigen, the primary T-cells are activated and nano-luciferase is expressed.
# The ability of rapamycin to inhibit the expression of nano-luciferase following activation of the primary T-cells was tested. Primary T-cells transduced with the bicistronic vector encoding the anti-DLL3 CAR and nano-luciferase were mixed with SHP-77 cells and then three treatment regimens were used. No rapamycin (NoRx), rapamycin added concurrently with the SHP-77 cells (Concurrent Rx), or rapamycin added 24 hours after SHP-77 cells was added (Delay Rx). New media was mixed with the cells every 24 hours. If the cells had received rapamycin in the media in the earlier time period, rapamycin was included with the media at subsequent media changes.
# FIG. 22 normalizes the nano-luciferase activity to that of the NoRx sample. Levels of nano-luciferase were measured at 24 hours, 48 hours and 72 hours post mixing with SHP-77 cells.
row,Structure (SMILES),expression of nano-luciferase normalized to NoRx
1,CO[C@H]1C[C@@H]2CC[C@@H](C)[C@@](O)(O2)C(=O)C(=O)N2CCCC[C@H]2C(=O)O[C@H]([C@H](C)C[C@@H]2CC[C@@H](O)[C@H](OC)C2)CC(=O)[C@H](C)/C=C(\C)[C@@H](O)[C@@H](OC)C(=O)[C@H](C)C[C@H](C)/C=C/C=C/C=C/1C [Rapamycin/sirolimus],reduced expression of nano-luciferase

# Target: mTORC1 (Homo sapiens, UniProt P42345)
# Experiment: not given
# Conditions: cited from earlier work
row,Structure (SMILES),IC50 [nM]
1,CO[C@H]1C[C@@H]2CC[C@@H](C)[C@@](O)(O2)C(=O)C(=O)N2CCCC[C@H]2C(=O)O[C@H]([C@H](C)C[C@@H]2CC[C@@H](OCCO)[C@H](OC)C2)CC(=O)[C@H](C)/C=C(\C)[C@@H](O)[C@@H](OC)C(=O)[C@H](C)C[C@H](C)/C=C/C=C/C=C/1C [Everolimus],1.8 to 2.6
2,CNC(=O)Nc1ccc(-c2nc(N3CC4CCC(C3)O4)c3cnn(C4CCC5(CC4)OCCO5)c3n2)cc1 [WYE-125132],0.19

# Test system: PI3K
# Experiment: not given
# Conditions: cited from earlier work
row,Structure (SMILES),IC50 [nM]
1,COc1ccc(-c2ccc3c(N4CCOC[C@@H]4C)nc(N4CCOC[C@@H]4C)nc3n2)cc1CO [AZD8055],3590
3,CCC(=O)N1CCN(c2ccc(-n3c(=O)ccc4cnc5ccc(-c6cnc7ccccc7c6)cc5c43)cc2C(F)(F)F)CC1 [Torin 1],250
4,Nc1ccc(-c2ccc3ncc4ccc(=O)n(-c5cccc(C(F)(F)F)c5)c4c3c2)cn1 [Torin 2],4.68
6,CNC(=O)Nc1ccc(-c2nc(N3CC4CCC(C3)O4)c3cnn(C4CCC5(CC4)OCCO5)c3n2)cc1 [WYE-125132],1180
7,COc1ccc(-c2ccc3c(N4CCOCC4)nc(N4C[C@@H](C)O[C@@H](C)C4)nc3n2)cc1CO [KU-0063794],> 10000
